US20220380829A1, “Method of Diagonosizing Pathogens and their Antimicrobial Susceptibility” (HANGZHOU DIAN MEDICAL LABORATORY CO., LTD., priority 2019, published 2022)
Starred links: 1 amine or outer side, 2 acyl side, 3 side chain; linkers in the order of their positions; H or OH if unused. Positions of bridges follow the written chain, without caps; N, C: chain ends. Non-standard residues stand in square brackets, D forms with d. Residues, ends and D or L forms follow the SMILES beside them. *: point of attachment. hTyr(3S-OH,4S-OH,3'-OSO3H) = N[C@H](C(=O)O)[C@H](O)[C@@H](O)c1ccc(O)c(OS(=O)(=O)O)c1; Orn(4R-OH,5R-OH) = O=C([C@H](C[C@@H](O)[C@@H](O)N[*:3])N[*:1])[*:2]; Pro(3S-OH,4S-Me) = C[C@H]1CN[C@H](C(=O)O)[C@H]1O; X1 = CCCCCOc1ccc(-c2cc(-c3ccc(C(=O)*)cc3)no2)cc1; Gln(3R-OH) = NC(=O)C[C@@H](O)[C@H](N)C(=O)O; Hyp = O=C(O)[C@@H]1C[C@@H](O)CN1

Legend:
Format in all cases: cell-based
Klebsiella pneumoniae = assay: VITEK2 Compact AST (AST-GN13/GN334 cards), gold standard culture-based AST; details: for Resistance profiles by VITEK2: R: number of resistant among 24 blinds; for Resistance profiles by VITEK2: S: number of susceptible among 24 blinds
Text: Step 1. Sample collection and drug susceptibility verification: 240 clinical Klebsiella pneumoniae isolates were collected from 23 hospitals across china in a period between January 2018 and March 2019.

Candida albicans = assay: Broth microdilution (M27-A3, M27-S4), gold standard culture-based AST; details: for Results by broth microdilution method: R: number of resistant among 12 blinds; for Results by broth microdilution method: S: number of susceptible among 12 blinds
Description: Step 1. Sample collection and drug susceptibility verification: 120 clinical Candida albicans isolates were collected from 31 hospitals across china in a period between September 2015 and January 2019. All isolates were tested for drug susceptibility using broth microdilution method following the M27-A3 and M27-S4 guidelines of NCCLS, and the results were used as the gold standard (culture-based AST).

Staphylococcus aureus = assay: VITEK2 Compact AST (AST-P639 card), gold standard culture-based AST; details: for Resistance profiles by VITEK2: R: number of resistant among 22 blinds; for Resistance profiles by VITEK2: S: number of susceptible among 22 blinds
Description: Step 1. Sample collection and drug susceptibility verification: 160 clinical Staphylococcus aureus isolates were collected from 20 hospitals across china in a period between June 2018 and June 2019. All isolates were tested for drug susceptibility using bioMérieux Vitek2 Compact System and AST-P639 card, and specifically, and the results were used as the gold standard (culture-based AST).

Enterococcus faecalis = assay: VITEK2 Compact AST (AST-P639 cards), gold standard culture-based AST
Streptococcus pneumoniae = assay: VITEK2 Compact AST (AST-GP68 cards) with penicillin disc diffusion, gold standard culture-based AST
Description: Step 1. Drug susceptibility verification: The Streptococcus pneumoniae isolates were tested for drug susceptibility using bioMérieux Vitek2 Compact System and AST-GP68 cards, and specifically, the susceptibility of penicillin was double checked by disc diffusion method (OXOID, CT0043B), and the combined results were used as the gold standard (culture-based AST).
Step 1. Sample collection and drug susceptibility verification: 48 clinical Streptococcus pneumoniae isolates were collected from 18 hospitals across china in a period between May 2017 and October 2019. All isolates were tested for drug susceptibility using bioMérieux Vitek2 Compact System and AST-GP68 card, and specifically, the susceptibility of penicillin was double checked by disc diffusion method (OXOID, CT0043B), and the combined results were used as the gold standard (culture-based AST).

[1] = Resistance profile classification A
[2] = Resistance profile classification B
[3] = Resistance profile classification C
[4] = Resistance profile classification D
[5] = Resistance profile classification G
[6] = Resistance profile classification H
[7] = Resistance profile classification I
[8] = Resistance profile classification J
[9] = Resistance profile classification S

## Cefoperazone-sulbactam
Klebsiella pneumoniae
  Resistance profiles by VITEK2: R: 13
  Resistance profiles by VITEK2: S: 11

## CCCCCOc1ccc(-c2cc(-c3ccc(C(=O)N[C@H]4C[C@@H](O)[C@@H](O)NC(=O)[C@@H]5[C@@H](O)[C@@H](C)CN5C(=O)[C@H]([C@H](O)CC(N)=O)NC(=O)[C@H]([C@H](O)[C@@H](O)c5ccc(O)c(OS(=O)(=O)O)c5)NC(=O)[C@@H]5C[C@@H](O)CN5C(=O)[C@H]([C@@H](C)O)NC4=O)cc3)no2)cc1 [Micafungin] (X1-[Orn(4R-OH,5R-OH)]T[Hyp][hTyr(3S-OH,4S-OH,3'-OSO3H)][Gln(3R-OH)][Pro(3S-OH,4S-Me)]; lactam 1-C)
Candida albicans
  Results by broth microdilution method: R: 0
  Results by broth microdilution method: S: 12

## CC[C@H](C)C[C@H](C)CCCCCCCCC(=O)N[C@H]1C[C@@H](O)[C@@H](NCCN)NC(=O)[C@@H]2[C@@H](O)CCN2C(=O)[C@H]([C@H](O)CCN)NC(=O)[C@H]([C@H](O)[C@@H](O)c2ccc(O)cc2)NC(=O)[C@@H]2C[C@@H](O)CN2C(=O)[C@H]([C@@H](C)O)NC1=O [Caspofungin]
Candida albicans
  Results by broth microdilution method: R: 0
  Results by broth microdilution method: S: 12

## OC(Cn1cncn1)(Cn1cncn1)c1ccc(F)cc1F [Fluconazole]
Candida albicans
  Results by broth microdilution method: R: 2
  Results by broth microdilution method: S: 10

## Teicoplanin
Staphylococcus aureus
  Resistance profiles by VITEK2: R: 0
  Resistance profiles by VITEK2: S: 22

## CCC(C)n1ncn(-c2ccc(N3CCN(c4ccc(OCC5COC(Cn6cncn6)(c6ccc(Cl)cc6Cl)O5)cc4)CC3)cc2)c1=O (stereo not drawn) [Itraconazole]
Candida albicans
  Results by broth microdilution method: R: 2
  Results by broth microdilution method: S: 10

## Gentamicin
Klebsiella pneumoniae
  Resistance profiles by VITEK2: R: 12
  Resistance profiles by VITEK2: S: 12
Staphylococcus aureus
  Resistance profiles by VITEK2: R: 7
  Resistance profiles by VITEK2: S: 15

## Nc1nc(=O)[nH]cc1F [5-Fluorocytosine]
Candida albicans
  Results by broth microdilution method: R: 4
  Results by broth microdilution method: S: 8

## penicillin
Enterococcus faecalis; [1]
  Susceptibility of Emterococcus faecalis to 11 antibacterial drugs: R
Enterococcus faecalis; [2]
  Susceptibility of Emterococcus faecalis to 11 antibacterial drugs: R
Enterococcus faecalis; [3]
  Susceptibility of Emterococcus faecalis to 11 antibacterial drugs: R
Enterococcus faecalis; [4]
  Susceptibility of Emterococcus faecalis to 11 antibacterial drugs: R
Enterococcus faecalis; Resistance profile classification F (first line so labelled, r12)
  Susceptibility of Emterococcus faecalis to 11 antibacterial drugs: R
Enterococcus faecalis; Resistance profile classification F (second line so labelled, r13)
  Susceptibility of Emterococcus faecalis to 11 antibacterial drugs: R
Enterococcus faecalis; [5]
  Susceptibility of Emterococcus faecalis to 11 antibacterial drugs: S
Enterococcus faecalis; [6]
  Susceptibility of Emterococcus faecalis to 11 antibacterial drugs: S
Enterococcus faecalis; [7]
  Susceptibility of Emterococcus faecalis to 11 antibacterial drugs: S
Enterococcus faecalis; [8]
  Susceptibility of Emterococcus faecalis to 11 antibacterial drugs: S
Enterococcus faecalis; Resistance profile classification K
  Susceptibility of Emterococcus faecalis to 11 antibacterial drugs: S
Enterococcus faecalis; Resistance profile classification L
  Susceptibility of Emterococcus faecalis to 11 antibacterial drugs: S
Enterococcus faecalis; Resistance profile classification M
  Susceptibility of Emterococcus faecalis to 11 antibacterial drugs: S
Enterococcus faecalis; [9]
  Susceptibility of Emterococcus faecalis to 11 antibacterial drugs: S
Streptococcus pneumoniae; Blind 1
  Blind 1 by AST: S
Streptococcus pneumoniae; [1]
  Susceptibility of Streptococcus pneumoniae to 14 antibacterial drugs: R
Streptococcus pneumoniae; [2]
  Susceptibility of Streptococcus pneumoniae to 14 antibacterial drugs: R
Streptococcus pneumoniae; [3]
  Susceptibility of Streptococcus pneumoniae to 14 antibacterial drugs: R
Streptococcus pneumoniae; [4]
  Susceptibility of Streptococcus pneumoniae to 14 antibacterial drugs: R
Streptococcus pneumoniae; Resistance profile classification E
  Susceptibility of Streptococcus pneumoniae to 14 antibacterial drugs: R
Streptococcus pneumoniae; Resistance profile classification F
  Susceptibility of Streptococcus pneumoniae to 14 antibacterial drugs: R
Streptococcus pneumoniae; [5]
  Susceptibility of Streptococcus pneumoniae to 14 antibacterial drugs: S
Streptococcus pneumoniae; [6]
  Susceptibility of Streptococcus pneumoniae to 14 antibacterial drugs: S
Streptococcus pneumoniae; [7]
  Susceptibility of Streptococcus pneumoniae to 14 antibacterial drugs: S
Streptococcus pneumoniae; [8]
  Susceptibility of Streptococcus pneumoniae to 14 antibacterial drugs: S
Streptococcus pneumoniae; [9]
  Susceptibility of Streptococcus pneumoniae to 14 antibacterial drugs: S
Streptococcus pneumoniae; blind 2
  blind 2 by AST: R
Staphylococcus aureus
  Resistance profiles by VITEK2: R: 20
  Resistance profiles by VITEK2: S: 2

## C[C@@H]1[C@H](O)[C@@H](C)/C=C/C=C/C=C/C=C/C=C/C=C/C=C/[C@H](O[C@@H]2O[C@H](C)[C@@H](O)[C@H](N)[C@@H]2O)C[C@@H]2O[C@](O)(C[C@@H](O)C[C@@H](O)[C@H](O)CC[C@@H](O)C[C@@H](O)CC(=O)O[C@H]1C)C[C@H](O)[C@H]2C(=O)O [Amphotericin B]
Candida albicans
  Results by broth microdilution method: R: 0
  Results by broth microdilution method: S: 12

## Amoxicillin-clavulanate
Klebsiella pneumoniae
  Resistance profiles by VITEK2: R: 16
  Resistance profiles by VITEK2: S: 8

## Piperacillin-tazobactam
Klebsiella pneumoniae
  Resistance profiles by VITEK2: R: 13
  Resistance profiles by VITEK2: S: 11

## Ampicillin-sulbactam
Klebsiella pneumoniae
  Resistance profiles by VITEK2: R: 15
  Resistance profiles by VITEK2: S: 9

## C[C@@H](c1ncncc1F)[C@](O)(Cn1cncn1)c1ccc(F)cc1F [Voriconazole]
Candida albicans
  Results by broth microdilution method: R: 2
  Results by broth microdilution method: S: 10
